Results taken from patent publication EP4725956A1, “MODIFIED POLYPEPTIDE AND USE THEREOF IN FIELD OF ANALGESIA” (Nanjing Anji Biotechnology Co., Ltd., priority 2023, dated 2024).
Positions of bridges follow the written chain, without caps; N, C: chain ends. Non-standard residues stand in square brackets, D forms with d. Residues, ends and D or L forms follow the SMILES beside them. Bip = N[C@@H](Cc1ccc(-c2ccccc2)cc1)C(=O)O; Nle = CCCC[C@H](N)C(=O)O; Orn = NCCC[C@H](N)C(=O)O; Abu = CC[C@H](N)C(=O)O; Sar = CNCC(=O)O

The compounds below were run against α7 nAChR (Homo sapiens, UniProt P36544) (assay: BLI (biolayer interferometry) affinity of peptides to α7 nAChR). Details: NTA sensor, α7 nAChR 20 µg/mL, peptide 1.372-1000 nM in PBS.
Type: binding
Design: inferred from the 'similar' procedure on NTA sensors
Excerpt: BLI is a label-free technology that converts optical interference signals occurring on the surface of BLI biosensors into real-time response signals. By monitoring the molecular binding process in real time, the system determines association rate constants (ka or kon), dissociation rate constants (kd or koff), and initial binding rates, and calculates affinity (KD) by fitting analysis. Here are the specific procedures: NTA sensors (Sartorius) were placed in a pre-wetting tray, which was then positioned in a black 96-well plate with 200 µL PBS per well. The NTA sensors were pre-wetted for at least 15 minutes. The target protein α9 nAChR was diluted in PBS to 5 µg/mL, with 200 µL added per well. Test peptides were dissolved in PBS and serially diluted threefold, with concentrations from high to low as 1000 nM, 333.3 nM, 111.1 nM, 37.04 nM, 12.35 nM, 4.115 nM, and 1.372 nM, with an additional well with PBS only as a zeroconcentration control. After equilibrating the instrument baseline, the NTA sensor was used to immobilize the target protein α9 nAChR. Once immobilization was complete, the baseline was re-equilibrated, followed by a 5-minute association and a 5-minute dissociation phase. Affinity measurements of the test peptides were conducted sequentially using the above procedure. The procedure for measuring peptide affinity to α7 nAChR was similar, except that the α7 nAChR concentration was 20 µg/mL. Tables 2 and 3 show the BLI-determined affinities of alanine-scan peptide analogs with target proteins, which identified sites on the parent peptide suitable for modification. Subsequently, single-site non-natural amino acid substituted peptides were evaluated by BLI for target protein affinity. Finally, multi-site combinatorial modified peptides were measured for affinity by BLI, leading to the selection of high-affinity peptides for further screen and drug development potential. Table 2 Test Results for Affinity of Modified Peptides to α9 nAChR
With `CC(C)C[C@H](NC(=O)[C@@H](NC(=O)[C@H]1CSSC[C@H](NC(=O)[C@H](CO)NC(=O)CN)C(=O)N[C@@H](CO)C(=O)N[C@H]([C@H](C)O)C(=O)N2CCC[C@H]2C(=O)N2CCC[C@H]2C(=O)N[C@@H](CO)C(=O)N1)C(C)C)C(=O)N[C@@H](Cc1ccc(O)cc1)C(=O)N[C@@H](CCCN)C(N)=O` [AJ003-33, GSCS-(D-Thr)-PPS-(D-Cys)-VLY-Orn-NH2 (3,9 disulfide bond)] (H-GSCS[dT]PPS[dC]VLY[Orn]-NH2; disulfide 3-9) the Kd was 400 nM.
In the case of `CNCC(=O)N[C@@H](CO)C(=O)N[C@H]1CSSC[C@H](C(=O)N[C@H](C(=O)N[C@@H](CC(C)C)C(=O)N[C@@H](Cc2ccc(O)cc2)C(=O)N[C@@H](CO)C(=O)O)C(C)C)NC(=O)[C@H](CO)NC(=O)[C@@H]2CCCN2C(=O)[C@@H]2CCCN2C(=O)[C@@H]([C@H](C)O)NC(=O)[C@H](CO)NC1=O` [AJ003-8, Sar-SCS-(D-Thr)-PPS-(D-Cys)-VLYS (3,9 disulfide bond)] (H-[Sar]SCS[dT]PPS[dC]VLYS-OH; disulfide 3-9), the Kd is reported as 6420 nM.
Compound `CC(C)C[C@H](NC(=O)[C@@H](NC(=O)[C@H]1CSSC[C@@H](NC(=O)[C@H](CO)NC(=O)CN)C(=O)N[C@@H](CO)C(=O)N[C@H]([C@H](C)O)C(=O)N2CCC[C@H]2C(=O)N2CCC[C@H]2C(=O)N[C@@H](CO)C(=O)N1)C(C)C)C(=O)N[C@@H](Cc1ccc(O)cc1)C(=O)N[C@@H](CO)C(=O)O` [AJ003-5, GS-(D-Cys)-S-(D-Thr)-PPS-(D-Cys)-VLYS (3,9 disulfide bond)] (H-GS[dC]S[dT]PPS[dC]VLYS-OH; disulfide 3-9) has a Kd of 400 nM.
With `CCCC[C@H](NC(=O)[C@@H](NC(=O)[C@H]1CSSC[C@H](NC(=O)[C@H](CO)NC(=O)CN)C(=O)N[C@@H](CO)C(=O)N[C@H]([C@H](C)O)C(=O)N2CCC[C@H]2C(=O)N2CCC[C@H]2C(=O)N[C@@H](CO)C(=O)N1)C(C)C)C(=O)N[C@@H](Cc1ccc(O)cc1)C(=O)N[C@@H](CO)C(=O)O` [AJ003-29, GSCS-(D-Thr)-PPS-(D-Cys)-V-Nle-YS (3,9 disulfide bond)] (H-GSCS[dT]PPS[dC]V[Nle]YS-OH; disulfide 3-9) the Kd was 674 nM.
`CC[C@H](NC(=O)[C@@H](NC(=O)[C@H]1CSSC[C@H](NC(=O)[C@H](CO)NC(=O)CN)C(=O)N[C@@H](CO)C(=O)N[C@H]([C@H](C)O)C(=O)N2CCC[C@H]2C(=O)N2CCC[C@H]2C(=O)N[C@@H](CO)C(=O)N1)C(C)C)C(=O)N[C@@H](Cc1ccc(O)cc1)C(=O)N[C@@H](CO)C(=O)O` [AJ003-28, GSCS-(D-Thr)-PPS-(D-Cys)-V-ABu-YS (3,9 disulfide bond)] (H-GSCS[dT]PPS[dC]V[Abu]YS-OH; disulfide 3-9) showed a Kd of 690 nM.
Work on `CC(C)C[C@@H](NC(=O)[C@H](NC(=O)[C@H]1CSSC[C@@H](NC(=O)[C@@H](CO)NC(=O)CN)C(=O)N[C@H](CO)C(=O)N[C@H]([C@H](C)O)C(=O)N2CCC[C@@H]2C(=O)N2CCC[C@@H]2C(=O)N[C@H](CO)C(=O)N1)C(C)C)C(=O)N[C@H](Cc1ccc(O)cc1)C(=O)N[C@H](CO)C(=O)O` [AJ003-6] (H-G[dS][dC][dS][dT][dP][dP][dS][dC][dV][dL][dY][dS]-OH; disulfide 3-9) yielded a Kd of 532 nM.
In the case of `CC(C)C[C@H](NC(=O)[C@@H](NC(=O)[C@H]1CSSC[C@H](NC(=O)[C@H](CO)NC(=O)CN)C(=O)N[C@@H](CO)C(=O)N[C@H]([C@H](C)O)C(=O)N2CCC[C@H]2C(=O)N2CCC[C@H]2C(=O)N[C@@H](CO)C(=O)N1)C(C)C)C(=O)N[C@@H](Cc1ccc(-c2ccccc2)cc1)C(=O)N[C@@H](CO)C(=O)O` [AJ003-32, GSCS-(D-Thr)-PPS-(D-Cys)-VL-Bip-S (3,9 disulfide bond)] (H-GSCS[dT]PPS[dC]VL[Bip]S-OH; disulfide 3-9), the Kd is reported as 375 nM.
